Active and inactive are the calls of the source. The calls are words filed in the database; no cut-off is given here.
Legend:
Plasmodium falciparum = test: Antiplasmodial activity against Plasmodium falciparum 3D7 infected in red blood cells assessed as parasitic growth inhibition incubated for 72 hrs by SYBR Green I staining based analysis; assay type: functional, organism-based; conditions: for IC50: 3D7, 72 h
[1] = Cytotoxicity against human HFF cells assessed as reduction in cell viability incubated for 72 hrs by CCK-8 assay; assay type: toxicity, cell-based
[2] = Selectivity index, ratio of CC50 for human HFF cells to IC50 for Plasmodium falciparum 3D7; assay type: toxicity, cell-based; conditions: read-out: Selectivity Index

| Structure (SMILES) | Activity (Plasmodium falciparum) | CC50 at 72 h [1] [µM] | selectivity ratio [2] | IC50 (Plasmodium falciparum) [µM] |
| --- | --- | --- | --- | --- |
| COc1cc([C@@H]2COc3cc(O)ccc3C2)c(O)c(OC)c1OC | inactive | – | – | – |
| Oc1ccccc1-c1cnc(-c2ccccc2)o1 | – | > 100 | > 18.8 | 4.6 |
| Oc1ccc(O)c(-c2cnc(-c3ccccc3)o2)c1 | – | 69.3 | 9.4 | 5.5 |
| COc1c(O)cc2c(c1OC)O[C@H]1c3ccc(O)cc3OC[C@@H]21 | inactive | – | – | – |
| C[C@@H]1CC[C@H]2[C@@H](C)C(=O)O[C@@H]3O[C@@]4(C)CC[C@@H]1[C@]32OO4 [ARTEMISININ] | – | > 200 | > 7890 | 0.025 |
| c1ccc(COc2ccc(-c3ncc(-c4ccccc4OCc4ccccc4)o3)cc2)cc1 | – | 72 | 14.8 | 4.8 |
| COc1ccc2c(c1OC)O[C@H]1c3ccc(O)cc3OC[C@@H]21 | inactive | – | – | – |
| COC1=C(OC)C(=O)C([C@@H]2COc3cc(O)ccc3C2)=CC1=O | – | 13.7 | 2.3 | 5.8 |
| COc1ccc([C@@H]2COc3cc(O)ccc3C2)c(O)c1OC | inactive | – | – | – |
| COc1ccc([C@@H]2COc3cc(O)ccc3C2)c(OC)c1O | inactive | – | – | – |
| COc1c(O)cc([C@@H]2COc3cc(O)ccc3C2)c(O)c1OC | – | 5.6 | 0.9 | 6.2 |
| Oc1cccc(-c2cnc(-c3ccccc3)o2)c1O | – | 8.5 | 2.7 | 3.1 |

Source: ChEMBL document CHEMBL6121042, “Isolation of Antiplasmodial Oxazoles and Isoflavonoids from the Roots of Oxytropis trichophysa and Total Synthesis of Oxazole-type Alkaloids” (J Nat Prod, 2025)
